Results as given in PubChem BioAssay (NCI).
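Results reflect a 48-hour exposure of cells in 96-well plates to compound at five concentrations. At the TGI there is no net growth.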

What was measured:
Experiment in all cases: DTP human tumour cell line panel, 48 h
MCF7 breast = test system: MCF7 breast
HCT-116 colon = test system: HCT-116 colon
CAKI-1 renal = test system: CAKI-1 renal
SR leukemia = test system: SR leukemia
BT-549 breast = test system: BT-549 breast
NCI-H522 lung = test system: NCI-H522 lung
HT29 colon = test system: HT29 colon
EKVX NSCLC = test system: EKVX NSCLC
HS 578T breast = test system: HS 578T breast
TK-10 renal = test system: TK-10 renal
U251 CNS = test system: U251 CNS
PC-3 prostate = test system: PC-3 prostate
HL-60(TB) leukemia = test system: HL-60(TB) leukemia
SN12C renal = test system: SN12C renal
NCI-H460 lung = test system: NCI-H460 lung
786-0 renal = test system: 786-0 renal
HCT-15 colon = test system: HCT-15 colon
HOP-92 NSCLC = test system: HOP-92 NSCLC
NCI-H226 lung = test system: NCI-H226 lung
SW-620 colon = test system: SW-620 colon
LOX IMVI melanoma = test system: LOX IMVI melanoma
A549 NSCLC = test system: A549 NSCLC
MDA-MB-435 = test system: MDA-MB-435
NCI-H23 lung = test system: NCI-H23 lung
ACHN renal = test system: ACHN renal
DU-145 prostate = test system: DU-145 prostate
COLO 205 colon = test system: COLO 205 colon
CCRF-CEM leukemia = test system: CCRF-CEM leukemia
OVCAR-4 ovarian = test system: OVCAR-4 ovarian
MOLT-4 leukemia = test system: MOLT-4 leukemia
UO-31 renal = test system: UO-31 renal
SK-MEL-2 melanoma = test system: SK-MEL-2 melanoma
IGROV1 ovarian = test system: IGROV1 ovarian
MALME-3M melanoma = test system: MALME-3M melanoma
SK-MEL-28 melanoma = test system: SK-MEL-28 melanoma
SF-539 CNS = test system: SF-539 CNS
OVCAR-3 ovarian = test system: OVCAR-3 ovarian
K-562 leukemia = test system: K-562 leukemia
SNB-19 CNS = test system: SNB-19 CNS
UACC-257 melanoma = test system: UACC-257 melanoma
T-47D breast = test system: T-47D breast
MDA-MB-231 breast = test system: MDA-MB-231 breast
SF-268 CNS = test system: SF-268 CNS
SK-MEL-5 melanoma = test system: SK-MEL-5 melanoma
SK-OV-3 ovarian = test system: SK-OV-3 ovarian
HOP-62 NSCLC = test system: HOP-62 NSCLC
OVCAR-8 ovarian = test system: OVCAR-8 ovarian
UACC-62 melanoma = test system: UACC-62 melanoma
SF-295 CNS = test system: SF-295 CNS
A498 renal = test system: A498 renal
KM12 colon = test system: KM12 colon
MDA-N = test system: MDA-N
RPMI-8226 leukemia = test system: RPMI-8226 leukemia
M14 melanoma = test system: M14 melanoma
HCC-2998 colon = test system: HCC-2998 colon
OVCAR-5 ovarian = test system: OVCAR-5 ovarian
SNB-75 CNS = test system: SNB-75 CNS
NCI/ADR-RES ovarian = test system: NCI/ADR-RES ovarian
RXF 393 renal = test system: RXF 393 renal

## O=c1cc(-c2ccccc2)oc2cc(Oc3nnnn3-c3ccccc3)ccc12
MCF7 breast
  TGI: 37.8 µM
HCT-116 colon
  TGI: > 100 µM
CAKI-1 renal
  TGI: 20.4 µM
SR leukemia
  TGI: > 100 µM
BT-549 breast
  TGI: 52.1 µM
NCI-H522 lung
  TGI: > 100 µM
HT29 colon
  TGI: > 100 µM
EKVX NSCLC
  TGI: > 100 µM
HS 578T breast
  TGI: 89.5 µM
TK-10 renal
  TGI: > 100 µM
U251 CNS
  TGI: 41.4 µM
PC-3 prostate
  TGI: > 100 µM
HL-60(TB) leukemia
  TGI: > 100 µM
SN12C renal
  TGI: > 100 µM
NCI-H460 lung
  TGI: > 100 µM
786-0 renal
  TGI: > 100 µM
HCT-15 colon
  TGI: > 100 µM
HOP-92 NSCLC
  TGI: 9.17 µM
NCI-H226 lung
  TGI: > 100 µM
SW-620 colon
  TGI: > 100 µM
LOX IMVI melanoma
  TGI: > 100 µM
A549 NSCLC
  TGI: > 100 µM
MDA-MB-435
  TGI: 46 µM
NCI-H23 lung
  TGI: > 100 µM
ACHN renal
  TGI: 13.9 µM
DU-145 prostate
  TGI: 94.1 µM
COLO 205 colon
  TGI: > 100 µM
CCRF-CEM leukemia
  TGI: > 100 µM
OVCAR-4 ovarian
  TGI: 70.9 µM
MOLT-4 leukemia
  TGI: > 100 µM
UO-31 renal
  TGI: 33.1 µM
SK-MEL-2 melanoma
  TGI: 97.3 µM
IGROV1 ovarian
  TGI: > 100 µM
MALME-3M melanoma
  TGI: > 100 µM
SK-MEL-28 melanoma
  TGI: > 100 µM
SF-539 CNS
  TGI: 85.4 µM
OVCAR-3 ovarian
  TGI: > 100 µM
K-562 leukemia
  TGI: > 100 µM
SNB-19 CNS
  TGI: > 100 µM
UACC-257 melanoma
  TGI: 90.9 µM
T-47D breast
  TGI: 79.7 µM
MDA-MB-231 breast
  TGI: > 100 µM
SF-268 CNS
  TGI: 52.2 µM
SK-MEL-5 melanoma
  TGI: 42.4 µM
SK-OV-3 ovarian
  TGI: > 100 µM
HOP-62 NSCLC
  TGI: > 100 µM
OVCAR-8 ovarian
  TGI: > 100 µM
UACC-62 melanoma
  TGI: > 100 µM
SF-295 CNS
  TGI: > 100 µM
A498 renal
  TGI: 79.6 µM
KM12 colon
  TGI: > 100 µM
MDA-N
  TGI: > 100 µM
RPMI-8226 leukemia
  TGI: > 100 µM
M14 melanoma
  TGI: > 100 µM
HCC-2998 colon
  TGI: > 100 µM

## CN1C2CCC1CN(CCOC(c1ccc(F)cc1)c1ccc(F)cc1)C2
HCT-116 colon
  TGI: 44.8 µM
CAKI-1 renal
  TGI: > 100 µM
BT-549 breast
  TGI: > 100 µM
NCI-H522 lung
  TGI: > 100 µM
HT29 colon
  TGI: 73.7 µM
EKVX NSCLC
  TGI: > 100 µM
HS 578T breast
  TGI: > 100 µM
TK-10 renal
  TGI: > 100 µM
U251 CNS
  TGI: 78.9 µM
PC-3 prostate
  TGI: > 100 µM
HL-60(TB) leukemia
  TGI: 31.3 µM
SN12C renal
  TGI: > 100 µM
NCI-H460 lung
  TGI: 60.6 µM
786-0 renal
  TGI: 40 µM
HCT-15 colon
  TGI: > 100 µM
HOP-92 NSCLC
  TGI: 93.9 µM
NCI-H226 lung
  TGI: > 100 µM
SW-620 colon
  TGI: 83.8 µM
LOX IMVI melanoma
  TGI: 39.1 µM
A549 NSCLC
  TGI: > 100 µM
MDA-MB-435
  TGI: 63.7 µM
NCI-H23 lung
  TGI: > 100 µM
ACHN renal
  TGI: > 100 µM
DU-145 prostate
  TGI: > 100 µM
COLO 205 colon
  TGI: 33.8 µM
CCRF-CEM leukemia
  TGI: > 100 µM
OVCAR-4 ovarian
  TGI: > 100 µM
MOLT-4 leukemia
  TGI: 83.7 µM
UO-31 renal
  TGI: > 100 µM
SK-MEL-2 melanoma
  TGI: 56.3 µM
IGROV1 ovarian
  TGI: > 100 µM
MALME-3M melanoma
  TGI: 32.5 µM
SK-MEL-28 melanoma
  TGI: 30.1 µM
SF-539 CNS
  TGI: 38 µM
OVCAR-3 ovarian
  TGI: > 100 µM
OVCAR-5 ovarian
  TGI: > 100 µM
K-562 leukemia
  TGI: 62.6 µM
SNB-19 CNS
  TGI: > 100 µM
UACC-257 melanoma
  TGI: 37.3 µM
T-47D breast
  TGI: 76.6 µM
MDA-MB-231 breast
  TGI: 58.5 µM
SF-268 CNS
  TGI: > 100 µM
SK-MEL-5 melanoma
  TGI: 27.8 µM
SNB-75 CNS
  TGI: > 100 µM
SK-OV-3 ovarian
  TGI: > 100 µM
HOP-62 NSCLC
  TGI: 59.3 µM
OVCAR-8 ovarian
  TGI: > 100 µM
SF-295 CNS
  TGI: 39.1 µM
NCI/ADR-RES ovarian
  TGI: > 100 µM
A498 renal
  TGI: 86 µM
KM12 colon
  TGI: 49.5 µM
MDA-N
  TGI: > 100 µM
RPMI-8226 leukemia
  TGI: 55.9 µM
M14 melanoma
  TGI: 38.8 µM
RXF 393 renal
  TGI: 43 µM

## CN(C)c1ccc(C(=O)NCCCCCCC(=O)NO)cc1
HCT-116 colon
  TGI: 0.972 µM
CAKI-1 renal
  TGI: 2.81 µM
SR leukemia
  TGI: > 76 µM
BT-549 breast
  TGI: > 28.3 µM
NCI-H522 lung
  TGI: 0.739 µM
HT29 colon
  TGI: > 32.5 µM
EKVX NSCLC
  TGI: > 100 µM
HS 578T breast
  TGI: > 23.8 µM
TK-10 renal
  TGI: 2.7 µM
U251 CNS
  TGI: 3.64 µM
HL-60(TB) leukemia
  TGI: > 63.8 µM
SN12C renal
  TGI: 2.03 µM
NCI-H460 lung
  TGI: 5.21 µM
786-0 renal
  TGI: > 30.4 µM
HCT-15 colon
  TGI: > 38.3 µM
NCI-H226 lung
  TGI: 17.8 µM
SW-620 colon
  TGI: > 21.5 µM
LOX IMVI melanoma
  TGI: 1.51 µM
A549 NSCLC
  TGI: 10.9 µM
MDA-MB-435
  TGI: 3.62 µM
NCI-H23 lung
  TGI: 3.66 µM
ACHN renal
  TGI: 5.45 µM
COLO 205 colon
  TGI: 0.832 µM
CCRF-CEM leukemia
  TGI: > 100 µM
OVCAR-4 ovarian
  TGI: > 25.3 µM
MOLT-4 leukemia
  TGI: > 100 µM
UO-31 renal
  TGI: 5.2 µM
SK-MEL-2 melanoma
  TGI: 0.932 µM
IGROV1 ovarian
  TGI: 2.69 µM
MALME-3M melanoma
  TGI: > 100 µM
SK-MEL-28 melanoma
  TGI: 13.9 µM
SF-539 CNS
  TGI: > 53 µM
OVCAR-3 ovarian
  TGI: 4.38 µM
OVCAR-5 ovarian
  TGI: 1.49 µM
K-562 leukemia
  TGI: > 100 µM
SNB-19 CNS
  TGI: > 100 µM
UACC-257 melanoma
  TGI: 2.13 µM
T-47D breast
  TGI: 1.04 µM
SF-268 CNS
  TGI: 6.26 µM
SK-MEL-5 melanoma
  TGI: 1.39 µM
SNB-75 CNS
  TGI: 2.2 µM
SK-OV-3 ovarian
  TGI: 1.54 µM
HOP-62 NSCLC
  TGI: 98.8 µM
OVCAR-8 ovarian
  TGI: 2.46 µM
UACC-62 melanoma
  TGI: 1.37 µM
SF-295 CNS
  TGI: 1.82 µM
NCI/ADR-RES ovarian
  TGI: 0.728 µM
A498 renal
  TGI: 3.07 µM
KM12 colon
  TGI: 35.4 µM
MDA-N
  TGI: 0.908 µM
M14 melanoma
  TGI: > 38 µM
RXF 393 renal
  TGI: 1.73 µM
HCC-2998 colon
  TGI: 1.48 µM
